Measured values as given in ChEMBL document CHEMBL3351225, “Design, synthesis, and structure-activity and structure-pharmacokinetic relationship studies of novel [6,6,5] tricyclic fused oxazolidinones leading to the discovery of a potent, selective, and orally bioavailable FXa inhibitor” (J Med Chem, 2014).

Each compound was assayed against Coagulation factor X (Homo sapiens, UniProt P00742) (assay: Inhibition of human factor 10a using N-Z-D-Arg-Gly-Arg-pNA, S-2765 chromogenic substrate).
Coagulation factor X, sequence (P00742 41-179 limits assumed): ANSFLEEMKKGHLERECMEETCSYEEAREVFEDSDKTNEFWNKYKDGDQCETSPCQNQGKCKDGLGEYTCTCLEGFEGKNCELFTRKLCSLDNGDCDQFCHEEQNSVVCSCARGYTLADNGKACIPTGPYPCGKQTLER
Coagulation factor X, sequence (P00742 235-488 limits assumed): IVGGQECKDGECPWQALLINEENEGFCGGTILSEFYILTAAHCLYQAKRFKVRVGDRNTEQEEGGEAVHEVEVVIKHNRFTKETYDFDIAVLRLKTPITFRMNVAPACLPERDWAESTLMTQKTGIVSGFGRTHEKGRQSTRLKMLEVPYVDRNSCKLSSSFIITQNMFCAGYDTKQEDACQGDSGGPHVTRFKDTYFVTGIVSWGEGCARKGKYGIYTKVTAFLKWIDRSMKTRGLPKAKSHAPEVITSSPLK

`O=C(NC[C@@H]1OC(=O)N2c3ccc(N4CCOCC4=O)cc3OC[C@@H]12)C(=O)Nc1ccc(Cl)cn1` was tested. Which IC50 did it give?
Its IC50 is 1210 nM.

Which IC50 does the source give for `O=C(NC[C@@H]1OC(=O)N2c3ccc(N4CC[C@@H](F)CC4=O)cc3OC[C@@H]12)c1ccc(Cl)s1` here?
The IC50 was 40.6 nM.

How did the IC50 turn out when `CS(=O)(=O)N1CCN(c2ccc3c(c2)OC[C@H]2[C@H](CNC(=O)c4ccc(Cl)s4)OC(=O)N32)C(=O)C1` was run?
The IC50 was 4180 nM.

`O=C(NC[C@@H]1OC(=O)N2c3ccc(N4CCOCC4=O)cc3[S+]([O-])C[C@@H]12)c1ccc(Cl)s1` (some centres undefined) was tested. Which IC50 did it give?
Its IC50 is 64 nM.

`CO[C@H]1CCN(c2ccc3c(c2)OC[C@H]2[C@H](CNC(=O)c4ccc(Cl)s4)OC(=O)N32)C(=O)C1` was tested. Which IC50 did it give?
The IC50 was 1860 nM.

With `O=C(NC[C@@H]1OC(=O)N2c3ccc(N4CCCCC4=O)cc3S(=O)(=O)C[C@@H]12)c1ccc(Cl)s1` as the compound, how does the IC50 read?
The IC50 was 50.5 nM.

`COc1ccc(C(=O)NC[C@@H]2OC(=O)N3c4ccc(N5CCOCC5=O)cc4OC[C@@H]23)cc1` was tested. Which IC50 did it give?
The IC50 was 4780 nM.

`O=C(NC[C@@H]1OC(=O)N2c3ccc(N4CCOCC4=O)cc3OC[C@@H]12)c1sc2cc(Cl)ccc2c1Cl` was tested. Which IC50 did it give?
Its IC50 is greater than 100000 nM.

With `O=C(NC[C@@H]1OC(=O)N2c3ccc(N4CCC5(CC4=O)OCCO5)cc3OC[C@@H]12)c1ccc(Cl)s1` as the compound, how does the IC50 read?
The IC50 was 2510 nM.

How did the IC50 turn out when `CN1CCN(c2ccc3c(c2)OC[C@H]2[C@H](CNC(=O)c4ccc(Cl)s4)OC(=O)N32)C(=O)C1` was run?
Its IC50 is 2210 nM.

With `O=C(NC[C@@H]1OC(=O)N2c3ccc(N4CCCCC4=O)cc3CC[C@@H]12)c1ccc(Cl)s1` as the compound, how does the IC50 read?
The IC50 was 6.59 nM.

Which IC50 does the source give for `O=C(NC[C@@H]1OC(=O)N2c3ccc(N4CCNCC4=O)cc3OC[C@@H]12)c1ccc(Cl)s1` here?
Its IC50 is 190 nM.

With `CC(C)(C)OC(=O)N1C[C@H]2[C@H](CNC(=O)c3ccc(Cl)s3)OC(=O)N2c2ccc(N3CCCCC3=O)cc21` as the compound, how does the IC50 read?
The IC50 was 8180 nM.

For `O=C(NC[C@@H]1OC(=O)N2c3ccc(N4CCN(S(=O)(=O)c5ccccc5)CC4=O)cc3OC[C@@H]12)c1ccc(Cl)s1`, which IC50 is on record?
Its IC50 is 5530 nM.

`O=C(Nc1ccc(Cl)cn1)[C@@H]1OC(=O)N2c3ccc(N4CCOCC4=O)cc3OC[C@@H]12` was tested. Which IC50 did it give?
The IC50 was greater than 100000 nM.

For `O=C(NC[C@@H]1OC(=O)N2c3ccc(N4CC[C@H](O)CC4=O)cc3OC[C@@H]12)c1ccc(Cl)s1`, which IC50 is on record?
The IC50 was 1220 nM.

With `O=C(NC[C@@H]1OC(=O)N2c3ccc(N4CC[C@@H](O)CC4=O)cc3OC[C@@H]12)c1ccc(Cl)s1` as the compound, how does the IC50 read?
The IC50 was 130 nM.

`O=C(NC[C@@H]1OC(=O)N2c3ccc(N4CCOCC4=O)cc3OC[C@@H]12)C(=O)Nc1ccc(Cl)s1` was tested. Which IC50 did it give?
The IC50 was 560 nM.

For `CC(=O)N1CCN(c2ccc3c(c2)OC[C@H]2[C@H](CNC(=O)c4ccc(Cl)s4)OC(=O)N32)C(=O)C1`, which IC50 is on record?
Its IC50 is 74.8 nM.

Which IC50 does the source give for `O=C(NC[C@@H]1OC(=O)N2c3ccc(N4CCOCC4=O)cc3OC[C@@H]12)C(=O)Nc1ccc(Cl)cc1` here?
Its IC50 is 310 nM.

Which IC50 does the source give for `O=C(NC[C@@H]1OC(=O)N2c3ccc(N4CCN(Cc5ccccc5)CC4=O)cc3OC[C@@H]12)c1ccc(Cl)s1` here?
Its IC50 is 11400 nM.

`O=C(NC[C@@H]1OC(=O)N2c3ccc(N4CCOCC4=O)cc3SC[C@@H]12)c1ccc(Cl)cc1` was tested. Which IC50 did it give?
The IC50 was 45.2 nM.

For `O=C(NC[C@@H]1OC(=O)N2c3ccc(N4CCOCC4=O)cc3OC[C@@H]12)Nc1ccc(Cl)cc1`, which IC50 is on record?
Its IC50 is 32.1 nM.

How did the IC50 turn out when `O=C(NC[C@@H]1OC(=O)N2c3ccc(N4CCOCC4=O)cc3OC[C@@H]12)c1ccc(Cl)cn1` was run?
Its IC50 is 710 nM.
